pEC50, pIC50: −log10 of the molar value. Entries after “also recorded” stand apart in the source; their conditions may differ.
Assays:
[1] = test system: XBP1 mRNA splicing in HEK293T cells; experiment: XBP1 mRNA splicing by RT-PCR in HEK293T cells; assay type: cell-based, human; conditions: [AD60] = 1 μM, 4 hr
Protocol: To examine the effects of IPA in living cells, we monitored the UPR in HEK293T cells using RT-PCR to measure splicing of XBP1 mRNA. […] At a concentration of 2 μM IPA, splicing was induced within 2 hr (lane 5). […] We used tunicamycin (Tm), which induces ER stress by blocking N-linked glycosylation, as a positive control to induce the UPR (Figure 2A, lanes 7, and Figure 2B, lane 4).
Cells were lysed and total RNA was collected (Total RNA Kit 1, EZ-RNA, EZNA [USA]). PolyA^+ mRNA was reverse transcribed with M-MLV (Invitrogen), and the resulting cDNA was used as a template for PCR amplification across the fragment of XBP1 cDNA containing the intron. Primers used to amplify human XBP1: 5′-[…]-3′ and 5′-[…]-3′. To amplify murine XBP1: 5′-[…]-3′ and 5′-[…]-3′. PCR conditions were as follows: 95°C for 5 min, 95°C for 1 min, 58°C for 30 s, 72°C for 30 s, and 72°C for 5 min, with 20 cycles of amplification. PCR products were resolved on a 2.5% agarose tris-acetate EDTA (TAE) gel. As previously reported, a hybrid amplicon species consisting of unspliced Xbp-1 annealed to spliced Xbp-1 can also be produced through this PCR reaction and was visible as a slower migrating band above the unspliced amplicon. The same cDNA was used as template for PCR of DERLIN-3 and HERPUD1, both ATF6 targets, and GAPDH, which was used as loading control. Primers used included the following: DERLIN-3, 5′-[…]-3′ and 5′-[…]-3′; HERPUD1-1, 5′-[…]-3′ and 5′-[…]-3′; GAPDH, 5′-[…]-3′ and 5′-[…]-3′. PCR conditions were: 95°C × 5 min, 95°C × 1 min, 56°C × 30 s, 72°C for 30 s for 25 cycles, 72°C for 5 min at 4°C. PCR products were resolved on a 2% agarose TAE gel.

[2] = test system: XBP1 mRNA-splicing reporter (IRE1-mediated) in HEK293T cells; experiment: XBP1-luciferase splicing reporter in HEK293T cells; assay type: cell-based; conditions: Homo sapiens, HEK-293T, in the presence of Tm (2 μg/ml), read-out: IC50 of XBP1-luciferase-splicing reporter activation
Description: A plasmid encoding a modified ER stress reporter construct consisting of a C-terminally FLAG-tagged firefly luciferase coding sequence fused to an N-terminal hemagglutinin-tagged tandem repeat of a partial sequence of XBP1 of human origin lacking its DNA-binding domain and containing the IRE1-cognate intron (pCAX-HA-2xXBP1ΔDBD(anATG)-LUC-F, kind gift of Takao Iwawaki [[Hosoda et al., 2010]]), was used as a template to generate a retroviral expression construct. The coding sequence of the reporter was amplified by PCR using primers with engineered BamHI and EcoRI sites and was subsequently cloned into the cognate sites of the retroviral expression vector pBABE.puro (Addgene) to generate construct DAA-A171. DAA-A171 was used to generate recombinant retroviral particles using standard methods and the resulting retroviral supernatant was used to transduce HEK293T cells, which were then subsequently selected with puromycin to create a stable reporter cell line.

HEK293T cells = experiment: HEK293T cell viability (CellTiter-Blue, 24 hr); assay type: cell-based; conditions: 24 hr, 1 μM, listed as GSK
Protocol: HEK293T cells were grown in DMEM (Sigma) complete media containing 10% FBS, 10 units/ml penicillin (Invitrogen), and 10 μg/ml streptomycin (Invitrogen). Cells were plated at a density of 30,000 cells per well in 96-well black plates with clear flat bottoms (Corning, Sigma-Aldrich) 24 hr before the experiment. A 12-point semi-logarithmic dilution series of compounds was made starting at 30 μM not to exceed 0.1% DMSO after final dilution into the growth media. Viability assays were conducted over the course of 24 hr. Cell viability was determined using CellTiter-Blue (Promega) following the manufacturer's instructions. […] Experiments were done in triplicate, and mean values were computed for each data point.

[3] = test system: PERK and eIF2α phosphorylation in HEK293T cells; experiment: PERK mobility shift and eIF2α phosphorylation by immunoblotting in HEK293T cells; assay type: cell-based
Protocol: To evaluate effects of IPA on the PERK branch, we measured the phosphorylation state of PERK and eIF2α by Western blotting. […] We also monitored PERK activation by phosphorylation of eIF2α, detected with a phospho-eIF2α-specific antibody (Figure 3C).
Cells were lysed in 50 mM Tris-HCl, 2% SDS, 10% glycerol, 0.01% bromophenol blue, pH 6.8 supplemented with phosphatase inhibitors (Sigma) and protease inhibitors (Roche). 30 μg to 50 μg of total protein was loaded on each lane of 8% or 10% SDS-PAGE gels. The separated proteins were then transferred onto nitrocellulose membranes for immunoblotting. The following antibodies and dilutions were used: anti-β-actin 1:10,000 (A5441, Sigma), anti-total PERK at 1:1000 (C33E10, Cell Signaling Technology), anti-phospho eIF2α at 1:1000 (3597S, Cell Signaling Technology), anti-total eIF2α at 1:1000 (L57A5, Cell Signaling Technology). After overnight incubation with primary antibody, membranes were washed in PBS with 0.05% Tween and incubated in HRP-coupled secondary antibody anti-rabbit (611–1302, Rockland) or anti-mouse (610–1302, Rockland) diluted at 1:5000 in wash buffer. Immunoreactive bands were detected by chemiluminescence.

[4] = test system: protein translation in HEK293T cells; experiment: Metabolic labeling: [35S] methionine incorporation in HEK293T cells; assay type: cell-based; conditions: IPA 1 μM + GSK 1 μM
Protocol: HEK293T cells (500,000 cells/ml) were plated in 12-well flat bottom culture cluster dishes (Costar, Fisher Scientific) 24 hr before the experiment. IPA (1 μM), or a combination of IPA with GSK2606414 (TRC inc. […] Cells lysates were kept on ice for 30 min before high-speed centrifugation followed by denaturation at 95°C. The samples were resolved on an SDS-polyacrylamide gel, which were then stained with Coomassie blue to ascertain protein loading. […] The resulting autoradiograms were quantified using ImageQuant software (Molecular Dynamics).

PERK = test system: PERK; design: method as in Axten et al., 2012; Moreno et al., 2013; conditions: ref Axten et al., 2012; Moreno et al., 2013; read-out: EC50 of PERK inhibition in cells; cited from earlier work

| Compound | effect on Tm-induced XBP1 mRNA splicing ([1]; Tm) | effect on IPA-induced XBP1 mRNA splicing ([1]; up to highest IPA concentration tested) | pIC50 [2] | effect on HEK293T cell viability at 1 μM (HEK293T cells) | effect of compound alone on the PERK pathway ([3]; GSK 1 μM alone) | effect on IPA-induced PERK and eIF2α phosphorylation ([3]; GSK 1 μM, IPA 0.5 and 1 μM) | effect on translation in IPA-treated cells [4] | pEC50 (PERK) |
| --- | --- | --- | --- | --- | --- | --- | --- | --- |
| Nc1ncnc2c1c(-c1ccc(NC(=O)Nc3cccc(C(F)(F)F)c3)cc1)nn2C1CCCC1 [AD60, reference compound] | inhibited Tm-induced XBP1 mRNA splicing | fully ablated IPA-induced XBP1 mRNA splicing | 6.12 | – | – | – | – | – |
| Cn1cc(-c2ccc3c(c2)CCN3C(=O)Cc2cccc(C(F)(F)F)c2)c2c(N)ncnc21 [GSK2606414, 7-methyl-5-(1-{[3-(trifluoromethyl)phenyl]acetyl}-2,3-dihydro-1H-indol-5-yl)-7H-p yrrolo[2,3-d]pyrimidin-4-amine, reference compound] | – | – | – | No effect on viability was observed; also recorded: no cell toxicity | No effect on the pathway was observed | abolished IPA-induced PERK and eIF2α phosphorylation | restored translation to baseline levels | […] |
